From US9567347B2, “Use of small molecule inhibitors targeting the interaction between RAC GTPase and p67(phox)” (CHILDREN'S HOSPITAL MEDICAL CENTER, priority 2012, dated 2017) come the findings set out here.

In assay [1] the test system is fMLP-activated primary murine neutrophils. Nature of the assay: Nitroblue tetrazolium (NBT) assay. It is filed as cell-based, mouse. Conditions: 10 μM, FIG. 3C. The procedure:
Primary neutrophils from mouse bone marrow were subjected to fMLP stimulation in the presence or absence of various chemicals for 5 min. Cells were stained for NBT activity as previously described in the incorporated materials of Filippi et al. (2004) to reveal relative ROS production.
To complement the DCFDA based FACS analysis and the luminol chemiluminescence method, nitroblue tetrazolium (NBT) assays were performed in fMLP-activated primary murine neutrophils (FIG. 3C).
The NBT assay was performed in primary murine neutrophils to measure ROS neutrophil production. […] Each compound was used at 10 μM.

Assay [2] deals with dHL-60 cells. The assay is described as follows: stability in culture over time, DCFDA ROS assay. The class given is cell-based, human. The following applies: 20 μM, 6 hr treatment window. The procedure:
(A) Apoptosis analysis by FACS of HL-60 cells treated with compound or vehicle control for 2 hours prior to 7-AAD and Annexin V staining. (B) HL-60 cells from A were harvested and lysates were immunoblotted for levels of pPAK, and actin was used as a control for loading. (C) F-actin reorganization in freshly isolated fMLP-stimulated primary murine neutrophils was analyzed. […] Cells were exposed to a 10 μM dose of Phox-I1, Phox-I2, and Analog 13, and 200 nM nocodazole. (D) The effect of Phox-I on NOX4 mediated ROS production was tested in primary murine neutrophils transfected with a NOX4 expressing plasmid. 10 μM Phox-I1 was applied to the cells for 30 min prior to ROS assay by luminol chemiluminescence in the presence of HRP. The fMLP-stimulated ROS activity in the presence or absence of 10 uM Phox-I1 was measured in parallel. (E) The antioxidant abilities of these lead compounds were tested by prestimulating dHL-60 cells with fMLP for 30 minutes prior to treatment with Phox-I1 or Phox-I2. Levels of superoxide were analyzed by DCFDA assay and FACS. NAC, apocyanin, DPI, and NSC23766 treated cells served as controls. […]

Assay [3] addresses T1, p67^phox recombinant protein (1-200) (Homo sapiens, UniProt P19878).
T1 construct: using the pET30-HIS p67(1-212) plasmid; His; made in house; host or cells: E. coli BL21(DE3)
T1 sequence (P19878 1-212): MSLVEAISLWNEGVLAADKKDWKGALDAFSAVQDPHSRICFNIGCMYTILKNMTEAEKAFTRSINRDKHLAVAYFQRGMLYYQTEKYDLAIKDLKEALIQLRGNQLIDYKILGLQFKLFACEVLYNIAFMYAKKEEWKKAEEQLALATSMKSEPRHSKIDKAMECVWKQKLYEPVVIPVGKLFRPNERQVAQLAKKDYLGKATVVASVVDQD
Nature of the assay: microscale thermophoresis binding to p67phox. The procedure:
The p67^phox protein was expressed in BL21(DE3) bacteria (Stratagene) using the pET30-HIS p67(1-212) plasmid. Protein was purified using the QIAexpress Ni-NTA kit (Qiagen) or the GST Bind Resin Chromatography Kit (Novagen) for RacV12 and RacWT proteins. Mutagenesis was carried out using the Quick Change Lightening Site Directed Mutagenesis Kit (Stratagene).
Proteins were labeled for microscale thermophoresis using the Monolith NT Protein Labeling Kit Red (Nano Temper Technologies) as recommended by the manufacturer. Binding reactions were carried out using the Monolith NT. 115 (Nano Temper Technologies). Binding data was analyzed using Graphpad Prizm to estimate Kd values. The arbitrary fluorescence value from the thermophoresis plots for the smallest compound titration was subtracted from every other data point (Delta depletion) prior to normalization to a Vmax of 100. In thermophoresis plots where there was no binding, a curve could not be fit and therefore no Vmax could be assigned. In these instances the highest delta depletion value was set to 100 and all data were normalized accordingly.
To test the ability of compounds identified by preliminary screening to bind to the p67^phox protein in the N-terminal 200 amino acid region involved in Rac1-GTP interaction, microscale thermophoresis was employed. This technology probes for fluorescent changes in the hydration shell of molecules in order to measure protein-protein or protein small molecule interactions with high sensitivity in near-native conditions.

Assay [4] concerns dHL-60 cells. Nature of the assay: DCFDA ROS assay after wash and recovery (affinity assay). It is filed as cell-based, human. Conditions: 2 hr treatment, recovery 4 hr or 2 hr. The procedure:
(A) Apoptosis analysis by FACS of HL-60 cells treated with compound or vehicle control for 2 hours prior to 7-AAD and Annexin V staining. (B) HL-60 cells from A were harvested and lysates were immunoblotted for levels of pPAK, and actin was used as a control for loading. (C) F-actin reorganization in freshly isolated fMLP-stimulated primary murine neutrophils was analyzed. […] Cells were exposed to a 10 μM dose of Phox-I1, Phox-I2, and Analog 13, and 200 nM nocodazole. (D) The effect of Phox-I on NOX4 mediated ROS production was tested in primary murine neutrophils transfected with a NOX4 expressing plasmid. 10 μM Phox-I1 was applied to the cells for 30 min prior to ROS assay by luminol chemiluminescence in the presence of HRP. The fMLP-stimulated ROS activity in the presence or absence of 10 uM Phox-I1 was measured in parallel. (E) The antioxidant abilities of these lead compounds were tested by prestimulating dHL-60 cells with fMLP for 30 minutes prior to treatment with Phox-I1 or Phox-I2. Levels of superoxide were analyzed by DCFDA assay and FACS. NAC, apocyanin, DPI, and NSC23766 treated cells served as controls. (F) For affinity assay, DMSO-differentiated HL-60 cells were treated with standard effective dose of indicated compound for 2 hours, washed, and allowed to recover in normal media for 4 hours or 2 hours prior to fMLP stimulation and DCFDA ROS production assay by FACS analysis. (G) For stability assay, DMSO-differentiated HL-60 cells were treated with 20 μM dose of compound for the indicated time period prior to fMLP stimulation and DCFDA ROS production assay by FACS analysis.
Next, a stability experiment was performed to determine the duration of effectiveness of the compound in suppressing neutrophils. To analyze the relative affinities of these compounds for the p67^phox target in cells, DCFDA ROS production assays were performed in dHL-60 cells treated with compound for 2 hr followed by wash and recovery for 4 hr or 2 hr in normal media prior to ROS production analysis.

The next assay deals with T2, xanthine oxidase (Bos taurus, UniProt P80457).
T2 construct: purchased Sigma Aldrich
T2 sequence (P80457 2-1332 limits assumed): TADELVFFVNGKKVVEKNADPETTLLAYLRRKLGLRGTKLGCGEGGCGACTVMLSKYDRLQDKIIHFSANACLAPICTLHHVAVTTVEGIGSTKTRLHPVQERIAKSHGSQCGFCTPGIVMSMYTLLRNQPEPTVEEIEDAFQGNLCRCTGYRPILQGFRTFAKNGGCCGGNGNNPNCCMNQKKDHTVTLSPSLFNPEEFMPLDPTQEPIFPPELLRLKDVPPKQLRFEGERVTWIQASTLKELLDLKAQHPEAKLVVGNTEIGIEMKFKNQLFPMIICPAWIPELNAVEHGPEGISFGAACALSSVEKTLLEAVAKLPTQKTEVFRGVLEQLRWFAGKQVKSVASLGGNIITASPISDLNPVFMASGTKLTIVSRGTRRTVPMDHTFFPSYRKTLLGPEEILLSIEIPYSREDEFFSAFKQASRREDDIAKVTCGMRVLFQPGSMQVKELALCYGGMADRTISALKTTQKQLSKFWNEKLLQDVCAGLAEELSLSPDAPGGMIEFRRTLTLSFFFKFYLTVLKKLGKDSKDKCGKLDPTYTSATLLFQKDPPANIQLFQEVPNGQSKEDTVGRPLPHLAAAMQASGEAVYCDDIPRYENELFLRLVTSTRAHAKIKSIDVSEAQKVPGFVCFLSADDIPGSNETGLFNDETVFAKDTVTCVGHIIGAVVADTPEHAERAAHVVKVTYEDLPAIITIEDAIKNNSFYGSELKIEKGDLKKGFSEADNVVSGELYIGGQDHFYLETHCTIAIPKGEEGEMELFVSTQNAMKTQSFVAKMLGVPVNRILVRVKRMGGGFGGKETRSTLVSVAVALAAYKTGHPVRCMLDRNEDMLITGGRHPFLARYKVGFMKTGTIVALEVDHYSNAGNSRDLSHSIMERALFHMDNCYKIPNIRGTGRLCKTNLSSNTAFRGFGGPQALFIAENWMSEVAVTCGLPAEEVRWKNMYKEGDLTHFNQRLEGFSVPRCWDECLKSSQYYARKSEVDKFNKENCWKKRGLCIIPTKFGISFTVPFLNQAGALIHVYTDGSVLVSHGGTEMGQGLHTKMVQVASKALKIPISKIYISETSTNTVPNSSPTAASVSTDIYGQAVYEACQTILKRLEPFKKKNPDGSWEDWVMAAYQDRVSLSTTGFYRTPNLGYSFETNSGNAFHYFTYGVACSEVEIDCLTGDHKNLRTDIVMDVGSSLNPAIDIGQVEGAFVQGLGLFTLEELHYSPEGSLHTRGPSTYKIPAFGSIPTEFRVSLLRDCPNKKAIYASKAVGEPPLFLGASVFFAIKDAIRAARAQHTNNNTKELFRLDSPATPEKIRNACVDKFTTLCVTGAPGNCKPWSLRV
Nature of the assay: xanthine/xanthine oxidase assay. The class given is biochemical. Conditions: 10 μM, 30 min at room temperature. The procedure:
Chemiluminescence was measured using GloMax®-96 Microplate Luminometer (Promega) (Tarpey et al., (2004) Am J Physiol Regul Integr Comp Physiol 286: R431-R444, hereby incorporated by reference in its entirety). The generation of […] by the xanthine/xanthine oxidase was performed in PBS supplemented with xanthine oxidase (0.004 U), HRP (0.005 U·mL^−1) and L012, following the protocol described in Wind et al., (2010) Br J Pharmacol. 161, 885-898, hereby incorporated by reference in its entirety. The reaction was started by the addition of xanthine (0.5 mM).
To test if the inhibitors are specific for the NOX2 enzyme, a xanthine/xanthine oxidase assay was performed. Specifically, vehicle, NAC (10 mM), […] or Phox-I2 (10 μM) was added to the assay, and incubated for 30 min at room temperature. The results were calculated by taking superoxide production in the absence of inhibitors as 100 and value obtained with NAC, Pghox-I1 or Phox-I2 was expressed as relative %. The data shown in FIG. 6 represent those from three separate experiments.

Each structure is given as a SMILES string.

With `COc1ccc2c(c1)C1C=C(c3ccccc3)NN1C(c1cccc([N+](=O)[O-])c1)O2` (centres unmarked) [Phox-I1], in assay [1], the “superoxide production (NBT)” value is given as “significant blockade of superoxide production”. In the assay with dHL-60 cells [2], the “efficacy of ROS inhibition over time in culture” value is on record as “no significant change in efficacy”. In assay [3], the equilibrium dissociation constant (Kd) was around 100 nM. The “ROS inhibition after wash” value in the assay on dHL-60 cells [4] is on record as “still evident”. The “xanthine oxidase-mediated ROS production” value at xanthine oxidase is reported as “does not affect”.
Turning to `O=[N+]([O-])c1cccc(C2Nc3ccc([N+](=O)[O-])cc3C3C=CCC32)c1` (centres unmarked) [Phox-I2], the “superoxide production (NBT)” value in assay [1] was “heightened”. The “efficacy of ROS inhibition over time in culture” value with dHL-60 cells [2] was “retained some efficacies”. Also, in assay [3], the equilibrium dissociation constant (Kd) was around 150 nM and the “binding to p67^phox” value was “high affinity”. Also, the “ROS inhibition after wash” value in the assay with dHL-60 cells [4] was “did not display effective ROS inhibition”. Also, the “xanthine oxidase-mediated ROS production” value on xanthine oxidase is given as “does not affect”.
